These results are taken from PMC2866084 (Journal of medicinal chemistry, 2010).

The term Papp denotes the rate of passage across a membrane or cell layer, normalised by area and donor concentration.

The nature of one data set: in vivo. Conditions: male, CD-1, mouse, po, 50 mg/kg.
Data set [1] in a line: Double-sink PAMPA permeability. The class given is in vitro ADME. Conditions: pH 7.4.
The test system of data set [2] is Salmonella typhimurium tester strains TA98 and TA100. Briefly: Ames assay for mutagenicity and cytotoxicity screening. The class given is cell-based. Conditions: TA98 and TA100, with and without S-9. (In general: In the Ames test, an excess of revertant colonies over the control signals mutagenicity.)
For the next data set, the system named is CD-1 mice. Briefly: Dose range-finding toxicity study in male and female CD-1 mice. Conditions: for histopathology: after 7 days oral treatment; for body weights compared to vehicle-treated controls: all treated mice, 7 days oral.

For `CCN(CC)CCCC(C)Nc1ccnc2cc(Oc3ccccc3)ccc12` (centres unmarked) [Compound 1], the concentration at 24 h in “in vivo” was under 11.8 nM.
`CCN(CC)CCCC(C)Nc1ccnc2cc(C(F)(F)F)ccc12` (centres unmarked) [Compound 3]: in data set [1], the Papp at 30 min, 50 μM worked out at 2700 ± 107 ×10⁻⁶ cm/s.
`CCCN(CCCNc1ccnc2cc(Cl)ccc12)CC1CC1` [Compound 4]: the “Bacterial mutagenicity, AMES test” value in data set [2] was “no increase in mutagenicity”. This compound also gave a Papp at 30 min, 50 μM in data set [1] of 1110 ± 176 ×10⁻⁶ cm/s.
Take `Clc1ccc2c(NCCCNCc3cccc4c3OCO4)ccnc2c1` [Compound 18, N-Benzo[1,3]dioxol-4-ylmethyl-N′-(7-chloro-quinolin-4-yl)-propane-1,3-diamine]: the “Bacterial mutagenicity, AMES test” value in data set [2] was “no increase in mutagenicity”. The compound further came in with a Papp at 30 min, 50 μM in data set [1] of 2400 ± 652 ×10⁻⁶ cm/s. Moreover, in the data set on CD-1 mice, the histopathology entry was “no findings related to the administration of the test articles” and the “body weights compared to vehicle-treated controls” value is on record as “remained normal”.
`COc1cccc(CNCCCNc2ccnc3cc(Cl)ccc23)c1O` [Compound 20, 2-{[3-(7-Chloro-quinolin-4-ylamino)-propylamino]-methyl}-6-methoxy-phenol] had an apparent permeability (Papp) at 30 min, 50 μM in data set [1] of 1360 ± 214 ×10⁻⁶ cm/s. In the data set on CD-1 mice, the histopathology entry is listed as “no findings related to the administration of the test articles” and the “body weights compared to vehicle-treated controls” value is on record as “remained normal”.
